According to patent US8519149B2, “Tricyclic compounds as mPGES-1 inhibitors” (Glenmark Pharmaceuticals S.A., priority 2010, dated 2013):

Molecular target: T1, Recombinant human mPGES-1 (Homo sapiens, UniProt O14684)
T1 sequence (O14684 1-152): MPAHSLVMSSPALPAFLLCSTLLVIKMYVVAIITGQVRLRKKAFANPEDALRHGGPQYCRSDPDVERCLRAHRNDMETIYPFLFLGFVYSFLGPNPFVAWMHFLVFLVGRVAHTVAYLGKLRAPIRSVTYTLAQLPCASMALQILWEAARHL
Assay: In-vitro mPGES-1 enzyme inhibition assay (PGE2 formation from PGH2, HTRF detection)
Assay type: biochemical
Settings: for inhibition at 1 µM: 1 μM test compound, read-out: Percentage inhibition at 1 μM; for inhibition at 1 µM / inhibition at 10 µM: recombinant human mPGES-1 microsomal fraction; for inhibition at 10 µM: 10 μM test compound, read-out: Percentage inhibition at 10 μM; for IC50: class symbols, selected examples
How it was run: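 IC50 values were derived by nonlinear regression of percent inhibition relative to enzyme reactions run without inhibitor. PGE2 formed from PGH2 with GSH was quantified by antibody-based HTRF after stannous chloride quench. Enzyme source was human mPGES-1 microsomes at 40-60 μg/mL protein; DMSO 0.5% (v/v).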

Compound | inhibition at 1 µM | inhibition at 10 µM | IC50
CC1(C)Cc2c(c(C(=O)Nc3ccc(C(C)(C)C)cc3)cc3nc(Nc4c(F)cccc4Cl)[nH]c23)O1 [Example-114, N-(4-tert-Butylphenyl)-2-[(2-chloro-6-fluorophenyl)amino]-7,7-dimethyl-7,8-dihydro-1H-furo[3,2-e]benzimidazole-5-carboxamide] | 99.4% | 99.1% | < 50 nM
CC1(C)Cc2c(c(C(=O)Nc3ccc(OC(F)F)nc3)cc3nc(Nc4c(F)cccc4Cl)[nH]c23)O1 [Example-115, 2-[(2-Chloro-6-fluorophenyl)amino]-N-[6-(difluoromethoxy)pyridin-3-yl]-7,7-dimethyl-7,8-dihydro-1H-furo[3,2-e]benzimidazole-5-carboxamide] | 100% | 100% | < 50 nM
CC1(C)Cc2c(c(C(=O)NC3(c4ccc(C(F)(F)F)cc4)CC3)cc3nc(Nc4c(F)cccc4Cl)[nH]c23)O1 [Example-116, 2-[(2-Chloro-6-fluorophenyl)amino]-7,7-dimethyl-N-{1-[4-(trifluoromethyl)phenyl]cyclopropyl}-7,8-dihydro-1H-furo[3,2-e]benzimidazole-5-carboxamide] | 96.9% | 99.8% | < 50 nM
CC1(C)Cc2c(c(C(=O)NC3(c4ccccc4C(F)(F)F)CC3)cc3nc(Nc4c(F)cccc4Cl)[nH]c23)O1 [Example-118, 2-[(2-Chloro-6-fluorophenyl)amino]-7,7-dimethyl-N-{1-[2-(trifluoromethyl)phenyl]cyclopropyl}-7,8-dihydro-1H-furo[3,2-e]benzimidazole-5-carboxamide] | 97% | 98.7% | > 100 nM
CC1(C)Cc2c(c(C(=O)Nc3cccc(C(C)(F)F)c3)cc3nc(Nc4c(F)cccc4Cl)[nH]c23)O1 [Example-119, 2-[(2-Chloro-6-fluorophenyl)amino]-N-[3-(1,1-difluoroethyl)phenyl]-7,7-dimethyl-7,8-dihydro-1H-furo[3,2-e]benzimidazole-5-carboxamide] | 98.1% | 100% | < 50 nM
Cc1cccc(Cl)c1Nc1nc2cc(C(=O)Nc3cccc(C(C)(F)F)c3)c3c(c2[nH]1)CC(C)(C)O3 [Example-120, 2-[(2-Chloro-6-methylphenyl)amino]-N-[3-(1,1-difluoroethyl)phenyl]-7,7-dimethyl-7,8-dihydro-1H-furo[3,2-e]benzimidazole-5-carboxamide] | 90.5% | 99% | < 50 nM
CC1(C)Cc2c(c(C(=O)Nc3ccc(C(F)(F)F)cn3)cc3nc(Nc4c(F)cccc4Cl)[nH]c23)O1 [Example-122, 2-[(2-Chloro-6-fluorophenyl)amino]-7,7-dimethyl-N-[5-(trifluoromethyl)pyridin-2-yl]-7,8-dihydro-1H-furo[3,2-e]benzimidazole-5-carboxamide] | 96% | 98.1% | < 50 nM
Cc1ccc(Cl)c(Nc2nc3cc(C(=O)Nc4cccc(C(F)(F)F)c4)c4c(c3[nH]2)CC(C)(C)O4)c1 [Example-123, 2-[(2-Chloro-5-methylphenyl)amino]-7,7-dimethyl-N-[3-(trifluoromethyl)phenyl]-7,8-dihydro-1H-furo[3,2-e]benzimidazole-5-carboxamide] | 91.1% | 98.9% | < 50 nM
Cc1cccc(Cl)c1Nc1nc2cc(C(=O)Nc3ccc(C(F)(F)F)cn3)c3c(c2[nH]1)CC(C)(C)O3 [Example-124, 2-[(2-Chloro-6-methylphenyl)amino]-7,7-dimethyl-N-[5-(trifluoromethyl)pyridin-2-yl]-7,8-dihydro-1H-furo[3,2-e]benzimidazole-5-carboxamide] | 97.1% | 100% | < 50 nM
CC1(C)Cc2c(c(C(=O)Nc3ccc(OCC4CC4)nc3)cc3nc(Nc4c(F)cccc4Cl)[nH]c23)O1 [Example-125, 2-[(2-Chloro-6-fluorophenyl)amino]-N-[6-(cyclopropylmethoxy)pyridin-3-yl]-7,7-dimethyl-7,8-dihydro-1H-furo[3,2-e]benzimidazole-5-carboxamide] | 10.6% | 76.7% | –
CC1(C)Cc2c(c(C(=O)NC3(c4cccc(C(F)(F)F)c4)CC3)cc3nc(Nc4c(F)cccc4Cl)[nH]c23)O1 [Example-127, 2-((2-Chloro-6-fluorophenyl)amino)-7,7-dimethyl-N-(1-(3-(trifluoromethyl)phenyl)cyclopropyl)-7,8-dihydro-1H-benzofuro[4,5-d]imidazole-5-carboxamide] | 94.7% | 99% | < 50 nM
CC1(C)Cc2c(c(C(=O)NCc3ccc(F)cc3C(F)(F)F)cc3nc(Nc4c(F)cccc4Cl)[nH]c23)O1 [Example-129, 2-((2-Chloro-6-fluorophenyl)amino)-N-(4-fluoro-2-(trifluoromethyl)benzyl)-7,7-dimethyl-7,8-dihydro-1H-benzofuro[4,5-d]imidazole-5-carboxamide] | 88.3% | 97.1% | < 50 nM
Cc1cccc(Cl)c1Nc1nc2cc(C(=O)NCc3ccc(F)cc3C(F)(F)F)c3c(c2[nH]1)CC(C)(C)O3 [Example-130, 2-((2-Chloro-6-methylphenyl)amino)-N-(4-fluoro-2-(trifluoromethyl)benzyl)-7,7-dimethyl-7,8-dihydro-1H-benzofuro[4,5-d]imidazole-5-carboxamide] | 74.6% | 96.8% | –
Cc1cccc(Cl)c1Nc1nc2cc(C(=O)NC3(c4cccc(C(F)(F)F)c4)CC3)c3c(c2[nH]1)CC(C)(C)O3 [Example-132, 2-((2-Chloro-6-methylphenyl)amino)-7,7-dimethyl-N-(1-(3-(trifluoromethyl)phenyl)cyclopropyl)-7,8-dihydro-1H-benzofuro[4,5-d]imidazole-5-carboxamide] | 92.4% | 98% | < 50 nM
Cc1cccc(Cl)c1Nc1nc2cc(C(=O)Nc3ccc(F)c(C(F)(F)F)c3)c3c(c2[nH]1)CC(C)(C)O3 [Example-133, 2-((2-Chloro-6-methylphenyl)amino)-N-(4-fluoro-3-(trifluoromethyl)phenyl)-7,7-dimethyl-7,8-dihydro-1H-benzofuro[4,5-d]imidazole-5-carboxamide] | 91.4% | 96.5% | < 50 nM

More lines, now with the values ahead:

inhibition at 1 µM | inhibition at 10 µM | IC50 | Compound
99.4% | 98.7% | < 50 nM | Cc1cc(C(F)(F)F)ccc1NC(=O)c1cc2nc(Nc3c(F)cccc3Cl)[nH]c2c2c1OC(C)(C)C2 [Example-113, 2-[(2-Chloro-6-fluorophenyl)amino]-7,7-dimethyl-N-[2-methyl-4-(trifluoromethyl)phenyl]-7,8-dihydro-1H-furo[3,2-e]benzimidazole-5-carboxamide]
100% | 98.7% | < 50 nM | CC1(C)Cc2c(c(C(=O)Nc3ccc(F)cc3C(F)(F)F)cc3nc(Nc4c(F)cccc4Cl)[nH]c23)O1 [Example-117, 2-[(2-Chloro-6-fluorophenyl)amino]-N-[4-fluoro-2-(trifluoromethyl)phenyl]-7,7-dimethyl-7,8-dihydro-1H-furo[3,2-e]benzimidazole-5-carboxamide]
100% | 100% | – | CC1(C)Cc2c(c(C(=O)Nc3ccc(Cl)cn3)cc3nc(Nc4c(F)cccc4Cl)[nH]c23)O1 [Example-121, 2-[(2-Chloro-6-fluorophenyl)amino]-N-(5-chloropyridin-2-yl)-7,7-dimethyl-7,8-dihydro-1H-furo[3,2-e]benzimidazole-5-carboxamide]
96.6% | 97.7% | < 50 nM | CC1(C)Cc2c(c(C(=O)Nc3ncc(Cl)cc3F)cc3nc(Nc4c(F)cccc4Cl)[nH]c23)O1 [Example-126, N-(5-Chloro-3-fluoropyridin-2-yl)-2-((2-chloro-6-fluorophenyl)amino)-7,7-dimethyl-7,8-dihydro-1H-benzofuro[4,5-d]imidazole-5-carboxamide]
90.5% | 94% | < 50 nM | Cc1ccc(NC(=O)c2cc3nc(Nc4c(F)cccc4Cl)[nH]c3c3c2OC(C)(C)C3)c(F)c1 [Example-128, 2-((2-Chloro-6-fluorophenyl)amino)-N-(2-fluoro-4-methylphenyl)-7,7-dimethyl-7,8-dihydro-1H-benzofuro[4,5-d]imidazole-5-carboxamide]
96.9% | 98.1% | < 50 nM | CC1(C)Cc2c(c(C(=O)Nc3cc(C(F)F)ccc3F)cc3nc(Nc4c(F)cccc4Cl)[nH]c23)O1 [Example-131, 2-((2-Chloro-6-fluorophenyl)amino)-N-(5-(difluoromethyl)-2-fluorophenyl)-7,7-dimethyl-7,8-dihydro-1H-benzofuro[4,5-d]imidazole-5-carboxamide]
99.9% | 99.4% | < 50 nM | CC1(C)Cc2c(c(C(=O)Nc3cc(C4CC4)ccc3F)cc3nc(Nc4c(F)cccc4Cl)[nH]c23)O1 [Example-134, 2-((2-Chloro-6-fluorophenyl)amino)-N-(5-cyclopropyl-2-fluorophenyl)-7,7-dimethyl-7,8-dihydro-1H-benzofuro[4,5-d]imidazole-5-carboxamide]
97.5% | 98.6% | < 50 nM | Cc1cccc(Cl)c1Nc1nc2cc(C(=O)Nc3cc(C(F)F)ccc3F)c3c(c2[nH]1)CC(C)(C)O3 [Example-135, 2-((2-Chloro-6-methylphenyl)amino)-N-(5-(difluoromethyl)-2-fluorophenyl)-7,7-dimethyl-7,8-dihydro-1H-benzofuro[4,5-d]imidazole-5-carboxamide]
